The term IC50 denotes the point on the concentration scale where inhibition reaches its midpoint.

Molecules are shown by their SMILES.

From patent US10072001B2, “Tank-binding kinase inhibitor compounds” (Gilead Sciences, Inc., priority 2014, dated 2018) come the findings set out here.

For one assay, the target named is IKKε (Homo sapiens (Human), UniProt Q14164). Put plainly: TR-FRET kinase assay, IKKε. The format is biochemical. The conditions noted are these: full length recombinant IKKε 0.3 nM, 2x Km ATP, 1 μM peptide, 240 min at 25° C.; geometric mean of minimum four determinations. The source says:
Biological Assay for TBK1 and IKKs:

In another assay the target is TBK1 (Homo sapiens (Human), UniProt Q9UHD2). Put plainly: TR-FRET kinase assay, TBK1. The conditions noted are these: read-out: TBK1-IC50; full length recombinant TBK1 2.5 nM, 2x Km ATP, 1 μM peptide, 240 min at 25° C.; geometric mean of minimum four determinations. (In general: TR-FRET usually uses a lanthanide donor and a delayed reading to cut background.)
TBK1, sequence (Q9UHD2 whole entry): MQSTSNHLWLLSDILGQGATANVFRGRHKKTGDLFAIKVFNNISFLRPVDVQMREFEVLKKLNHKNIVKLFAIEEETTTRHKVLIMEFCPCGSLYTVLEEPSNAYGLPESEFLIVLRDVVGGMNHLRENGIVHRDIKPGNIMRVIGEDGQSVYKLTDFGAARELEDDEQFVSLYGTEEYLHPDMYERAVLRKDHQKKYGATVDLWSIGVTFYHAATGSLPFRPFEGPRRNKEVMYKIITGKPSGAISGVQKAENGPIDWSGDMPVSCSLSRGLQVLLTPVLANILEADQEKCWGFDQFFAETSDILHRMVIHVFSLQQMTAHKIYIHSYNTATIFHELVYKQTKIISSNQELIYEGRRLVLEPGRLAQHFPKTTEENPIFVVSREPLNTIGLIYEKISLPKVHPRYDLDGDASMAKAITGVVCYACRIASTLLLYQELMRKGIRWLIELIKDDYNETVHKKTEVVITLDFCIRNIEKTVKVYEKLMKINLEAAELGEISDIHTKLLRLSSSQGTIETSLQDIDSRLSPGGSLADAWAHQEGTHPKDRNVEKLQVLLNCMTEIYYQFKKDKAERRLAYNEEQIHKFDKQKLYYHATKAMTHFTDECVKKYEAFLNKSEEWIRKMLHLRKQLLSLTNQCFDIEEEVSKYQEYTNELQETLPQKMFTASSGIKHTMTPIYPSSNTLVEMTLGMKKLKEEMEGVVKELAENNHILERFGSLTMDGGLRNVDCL

IKKε, sequence (Q14164 whole entry): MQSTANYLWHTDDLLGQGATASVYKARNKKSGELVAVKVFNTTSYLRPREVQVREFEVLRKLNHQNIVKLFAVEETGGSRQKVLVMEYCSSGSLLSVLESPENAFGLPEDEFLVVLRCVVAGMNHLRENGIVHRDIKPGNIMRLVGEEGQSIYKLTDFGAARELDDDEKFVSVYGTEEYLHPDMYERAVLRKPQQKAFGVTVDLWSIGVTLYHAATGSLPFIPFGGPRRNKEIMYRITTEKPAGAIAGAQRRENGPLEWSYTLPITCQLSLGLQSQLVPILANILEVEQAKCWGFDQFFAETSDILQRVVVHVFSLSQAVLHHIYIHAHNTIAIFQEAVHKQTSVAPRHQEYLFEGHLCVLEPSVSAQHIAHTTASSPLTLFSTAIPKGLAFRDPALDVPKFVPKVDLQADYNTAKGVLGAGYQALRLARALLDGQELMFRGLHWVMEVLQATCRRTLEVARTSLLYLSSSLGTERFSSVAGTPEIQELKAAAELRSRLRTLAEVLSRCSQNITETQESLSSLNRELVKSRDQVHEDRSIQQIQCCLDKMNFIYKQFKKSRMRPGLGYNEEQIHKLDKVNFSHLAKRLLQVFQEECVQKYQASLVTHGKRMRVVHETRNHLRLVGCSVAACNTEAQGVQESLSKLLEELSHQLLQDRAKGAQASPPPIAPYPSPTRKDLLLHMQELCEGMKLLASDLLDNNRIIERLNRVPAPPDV

`N#Cc1cc(-c2ccnc3[nH]c(-c4ccc(N5CCOCC5)cc4)cc23)ccc1OC1CCN(C(=O)CO)CC1` [Example 19, 2-((1-(2-hydroxyacetyl)piperidin-4-yl)oxy)-5-(2-(4-morpholinophenyl)-1H-pyrrolo[2,3-b]pyridin-4-yl)benzonitrile]: the IC50 was found to be 3.72 nM on IKKε and 1.9 nM at TBK1.

As for `COc1cc(-c2cc3c(-c4ccc(N5CC[C@@H](O)C5)c(C#N)c4)ncnc3[nH]2)ccc1N1CCN(C2COC2)CC1` [Example 142, (R)-2-(3-hydroxypyrrolidin-1-yl)-5-(6-(3-methoxy-4-(4-(oxetan-3-yl)piperazin-1-yl)phenyl)-7H-pyrrolo[2,3-d]pyrimidin-4-yl)benzonitrile], the concentration for half-maximal inhibition (IC50) at IKKε was 14.7 nM; at TBK1 it was 2.03 nM.

For the compound `CN1CCN(c2ccc(-c3nc4c(-c5ccc(OC6CCN(C=O)CC6)c(C#N)c5)ncnc4[nH]3)cc2)CC1` [Example 254, 2-((1-formylpiperidin-4-yl)oxy)-5-(8-(4-(4-methylpiperazin-1-yl)phenyl)-9H-purin-6-yl)benzonitrile], the figures for the IC50 at IKKε and on TBK1 were 2.69 nM and 4.22 nM, respectively.

With `N#Cc1cc(-c2ncnc3[nH]c(-c4cccc(N5CCOCC5)c4)cc23)ccc1OC1CCOCC1` [Example 103, 5-(6-(3-morpholinophenyl)-7H-pyrrolo[2,3-d]pyrimidin-4-yl)-2-((tetrahydro-2H-pyran-4-yl)oxy)benzonitrile], the IC50 at IKKε was 18.9 nM; at TBK1 it was 2.63 nM.

On to `N#Cc1cc(-c2ccnc3[nH]c(-c4ccc(N5CCOCC5)cc4)nc23)ccc1OC1CCNCC1` [Example 197, 5-(2-(4-morpholinophenyl)-3H-imidazo[4,5-b]pyridin-7-yl)-2-(piperidin-4-yloxy)benzonitrile], for which the half-maximal inhibitory concentration (IC50) is 109 nM at IKKε and 29.1 nM at TBK1.

As for `C[C@@H](O)C(=O)N1CC[C@@H](Oc2ccc(-c3ncnc4[nH]c(-c5ccc(N6CCOCC6)cc5)nc34)cc2C#N)C1` [Example 209, 2-(((R)-1-((R)-2-hydroxypropanoyl)pyrrolidin-3-yl)oxy)-5-(8-(4-morpholinophenyl)-9H-purin-6-yl)benzonitrile], the concentration for half-maximal inhibition (IC50) on IKKε came to 58.7 nM; on TBK1 it was 13.1 nM.

As for `N#Cc1cc(-c2ncnc3[nH]c(-c4cccc(N5CCOCC5)c4)cc23)ccc1N1CC(O)C1` [Example 110, 2-(3-hydroxyazetidin-1-yl)-5-(6-(3-morpholinophenyl)-7H-pyrrolo[2,3-d]pyrimidin-4-yl)benzonitrile], the IC50 on IKKε turned out to be 57.4 nM; on TBK1 it was 12.6 nM.

Consider `N#CCC(=O)N1CC[C@@H](Oc2ccc(-c3ccnc4[nH]c(-c5ccc(N6CCOCC6)cc5)nc34)cc2C#N)C1` [Example 303, (R)-2-((1-(2-cyanoacetyl)pyrrolidin-3-yl)oxy)-5-(2-(4-morpholinophenyl)-3H-imidazo[4,5-b]pyridin-7-yl)benzonitrile], for which the figures for the IC50 at IKKε and at TBK1 were 7.51 nM and 4.59 nM, respectively.

Turning to `N#Cc1cc(-c2ncnc3[nH]c(-c4ccc5c(c4)NCCO5)cc23)ccc1OC1CCOCC1` [Example 191, 5-(6-(3,4-dihydro-2H-benzo[b][1,4]oxazin-6-yl)-7H-pyrrolo[2,3-d]pyrimidin-4-yl)-2-((tetrahydro-2H-pyran-4-yl)oxy)benzonitrile], the IC50 at IKKε was 12.7 nM; on TBK1, 5.09 nM.

Turning to `COc1cc(-c2cc3c(-c4ccc(OC5CCOCC5)c(C#N)c4)ncnc3[nH]2)ccc1N1CCN(C2COC2)CC1` [Example 143, 5-(6-(3-methoxy-4-(4-(oxetan-3-yl)piperazin-1-yl)phenyl)-7H-pyrrolo[2,3-d]pyrimidin-4-yl)-2-((tetrahydro-2H-pyran-4-yl)oxy)benzonitrile], the 50% inhibitory concentration (IC50) at IKKε turned out to be 6.9 nM; on TBK1, 1.02 nM.

As for `N#Cc1cc(-c2ccnc3[nH]c(-c4ccc(N5CCOCC5)cc4)cc23)ccc1NC(=O)C1CC1` [Example 32, N-(2-cyano-4-(2-(4-morpholinophenyl)-1H-pyrrolo[2,3-b]pyridin-4-yl)phenyl)cyclopropanecarboxamide], the IC50 was above 1000 nM at IKKε and 9.34 nM on TBK1.

As to `N#Cc1cc(-c2ccnc3[nH]c(C(=O)N4CCOCC4)cc23)ccc1OC1CCOCC1` [Example 116, 5-(2-(morpholine-4-carbonyl)-1H-pyrrolo[2,3-b]pyridin-4-yl)-2-((tetrahydro-2H-pyran-4-yl)oxy)benzonitrile], the results for the IC50 on IKKε and on TBK1 were 667 nM and 1000 nM, respectively.

With `CN1CCN(C(=O)c2cc3c(-c4ccc(OC5CCOCC5)c(C#N)c4)ccnc3[nH]2)CC1` [Example 118, 5-(2-(4-methylpiperazine-1-carbonyl)-1H-pyrrolo[2,3-b]pyridin-4-yl)-2-((tetrahydro-2H-pyran-4-yl)oxy)benzonitrile], the 50% inhibitory concentration (IC50) at IKKε amounted to 291 nM; on TBK1 it was 1000 nM.

As for `N#Cc1cc(-c2ccnc3[nH]c(-c4ccc(N5CCOCC5)cc4)nc23)ccc1O[C@@H]1CCNC1` [Example 195, (R)-5-(2-(4-morpholinophenyl)-3H-imidazo[4,5-b]pyridin-7-yl)-2-(pyrrolidin-3-yloxy)benzonitrile], the IC50 on IKKε was determined as 62.3 nM; at TBK1, 17.7 nM.

`N#Cc1cc(-c2ncnc3[nH]c(-c4ccc(N5CCN(C6COC6)CC5)cc4)nc23)ccc1OC1CCOCC1` [Example 232, 5-(8-(4-(4-(oxetan-3-yl)piperazin-1-yl)phenyl)-9H-purin-6-yl)-2-((tetrahydro-2H-pyran-4-yl)oxy)benzonitrile]: the IC50 at IKKε worked out at 15.5 nM; at TBK1 it was 4.49 nM.

With `N#Cc1cc(-c2ncnc3[nH]c(-c4ccc(N5CCOCC5)cc4)nc23)ccc1OC1CCN(C(=O)C(F)F)CC1` [Example 248, 2-((1-(2,2-difluoroacetyl)piperidin-4-yl)oxy)-5-(8-(4-morpholinophenyl)-9H-purin-6-yl)benzonitrile], the IC50 stood at 9.82 nM on IKKε and 3.63 nM on TBK1.

`N#Cc1cc(-c2ncnc3[nH]c(-c4ccc(OCCN5CCCC5)cc4)cc23)ccc1N1CC(O)C1` [Example 227, 2-(3-hydroxyazetidin-1-yl)-5-(6-(4-(2-(pyrrolidin-1-yl)ethoxy)phenyl)-7H-pyrrolo[2,3-d]pyrimidin-4-yl)benzonitrile]: the IC50 on IKKε was 70.2 nM; on TBK1, 42.4 nM.

In the case of `N#Cc1cc(-c2ccnc3[nH]c(-c4ccc(N5CCN(C(=O)CO)CC5)cc4)cc23)ccc1OC1CCOCC1` [Example 56, 5-(2-(4-(4-(2-hydroxyacetyl)piperazin-1-yl)phenyl)-1H-pyrrolo[2,3-b]pyridin-4-yl)-2-((tetrahydro-2H-pyran-4-yl)oxy)benzonitrile], the IC50 at IKKε amounted to 15.8 nM; on TBK1 it was 2.02 nM.

`N#Cc1cc(-c2ccnc3[nH]c(-c4cnn(C5CNC5)c4)cc23)ccc1OC1CCOCC1` [Example 9, 5-(2-(1-(azetidin-3-yl)-1H-pyrazol-4-yl)-1H-pyrrolo[2,3-b]pyridin-4-yl)-2-((tetrahydro-2H-pyran-4-yl)oxy)benzonitrile]: the IC50 worked out at 1.41 nM at IKKε and 2.38 nM at TBK1.

For `N#Cc1cc(-c2ccnc3[nH]c(-c4ccc(N5CCOCC5)cc4)cc23)ccc1CN1CCOCC1` [Example 70, 2-(morpholinomethyl)-5-(2-(4-morpholinophenyl)-1H-pyrrolo[2,3-b]pyridin-4-yl)benzonitrile], the IC50 was found to be 132 nM on IKKε and 10.5 nM at TBK1.

`N#Cc1cc(-c2ncnc3[nH]c(-c4ccc(C5CCN(CC(F)(F)F)CC5)cc4)nc23)ccc1OC1CCN(C(=O)CO)CC1` [Example 257, 2-((1-(2-hydroxyacetyl)piperidin-4-yl)oxy)-5-(8-(4-(1-(2,2,2-trifluoroethyl)piperidin-4-yl)phenyl)-9H-purin-6-yl)benzonitrile]: the values for the IC50 at IKKε and on TBK1 were 14 nM and 3.8 nM, respectively.

Consider `N#Cc1cc(-c2ccnc3[nH]c(-c4ccc(N5CCOCC5)cc4)nc23)ccc1OC1CCN(C(=O)CO)CC1` [Example 198, 2-((1-(2-hydroxyacetyl)piperidin-4-yl)oxy)-5-(2-(4-morpholinophenyl)-3H-imidazo[4,5-b]pyridin-7-yl)benzonitrile], for which the IC50 came to 3.42 nM on IKKε and 2.3 nM at TBK1.

Consider `N#Cc1cc(-c2ccnc3[nH]c(-c4ccc(N5CCOCC5)cc4)cc23)cnc1OC1CCOCC1` [Example 29, 5-(2-(4-morpholinophenyl)-1H-pyrrolo[2,3-b]pyridin-4-yl)-2-((tetrahydro-2H-pyran-4-yl)oxy)nicotinonitrile], for which the IC50 is 242 nM on IKKε and 14.8 nM on TBK1.

Take `N#Cc1cc(-c2ncnc3[nH]c(-c4ccc(C5CCN(CC(F)F)CC5)cc4)nc23)ccc1OC1CCN(C=O)CC1` [Example 258, 5-(8-(4-(1-(2,2-difluoroethyl)piperidin-4-yl)phenyl)-9H-purin-6-yl)-2-((1-formylpiperidin-4-yl)oxy)benzonitrile]: the IC50 on IKKε stood at 12.9 nM; at TBK1 it was 6.4 nM.

For `N#Cc1cc(-c2ncnc3[nH]c(-c4ccc(C(=O)NC5COC5)cc4)cc23)ccc1OC1CCN(C(=O)CO)CC1` [Example 163, 4-(4-(3-Cyano-4-((1-(2-hydroxyacetyl)piperidin-4-yl)oxy)phenyl)-7H-pyrrolo[2,3-d]pyrimidin-6-yl)-N-(oxetan-3-yl)benzamide], the values for the half-maximal inhibitory concentration (IC50) on IKKε and on TBK1 were 1.8 nM and 1.78 nM, respectively.

`CC(C)(O)c1ccc(-c2cc3c(-c4ccc(OC5CCOCC5)c(C#N)c4)ncnc3[nH]2)cn1` [Example 129, 5-(6-(6-(2-hydroxypropan-2-yl)pyridin-3-yl)-7H-pyrrolo[2,3-d]pyrimidin-4-yl)-2-((tetrahydro-2H-pyran-4-yl)oxy)benzonitrile]: the IC50 was found to be 17.4 nM at IKKε and 2.77 nM at TBK1.

Take `CC1(COc2ccc(-c3ccnc4[nH]c(-c5ccc(N6CCOCC6)cc5)cc34)cc2C#N)COC1` [Example 12, 2-((3-methyloxetan-3-yl)methoxy)-5-(2-(4-morpholinophenyl)-1H-pyrrolo[2,3-b]pyridin-4-yl)benzonitrile]: the IC50 is 41 nM at IKKε and 14.1 nM on TBK1.
